In patent publication US5677439A, “Oligonucleotide analogues containing phosphate diester linkage substitutes, compositions thereof, and precursor dinucleotide analogues” (Sanofi, priority 1995, dated 1997):
Entries after “also recorded” stand apart in the source; their conditions may differ.

How the values were obtained:
[1] = system: fetal calf serum-associated exonuclease; experiment: Nuclease resistance: 2 h incubation in cell culture medium with 10% fetal calf serum, HPLC of parent compound; format: in vitro ADME; conditions: for % DEGRADATION MAJOR PEAK: 2 hours at 37° C., 6 or 7 μM, RPMI 1640 medium with 10% heat inactivated FCS; for degradation / resistance to hydrolysis by FCS-associated exonucleases (in words): 2 hrs incubation, 10% FCS; for AREA-MAJOR PEAK/2.0 HR: HPLC peak area of parent compound after 2.0 hr at 37° C. in RPMI 1640 with 10% FCS; for AREA-MAJOR PEAK/0.0 MIN: HPLC peak area of parent compound, 260 nm; for % of oligomer remained after incubation: 2 hrs incubation with fetal calf serum-associated exonuclease
Experimental: The oligonucleotides of Table 4 were dissolved in water. DNA concentrations were then determined by measuring the absorbance of samples at 260 nm (on a Perkin Elmer Lambda 4C Spectrophotometer at ambient room temperature) and using calculated extinction coefficients [method of Cantor and Warsaw, CRC Handbook of Biochemistry and Molecular Biology, 3rd. ed.
The FCS was heat inactivated at 56° C. for 0.5 hour prior to use. Samples were then placed on ice and deproteinized using five extractions with 24:1 chloroform:isoamyl alcohol. Samples were either stored frozen at -20° C. or immediately loaded onto a refrigerated (4° C.) WISP (Waters) HPLC autoinjector.
Oligonucleotide hydrolysis was guantitated by determining the amount of disappearance of the parent compound. Oligonucleotides (from the reaction mixture) were separated on an LKB Ultrachrome GTi dual pump chromatography system equipped with a fixed wavelength detector (260 nm), and recording integrator, using a GenPak FAX (Waters) anion exchange column eguilibrated in Buffer A (1 mM EDTA; 15 mM sodium phosphate, pH 8.5). Column temperature was maintained at 60° C. using a Waters column oven. Fifty microliter sample injection volumes were used. The oligonucleotides were eluted using a linear gradient of 0% to 100% Buffer B (Buffer A containing 0.5M NaCl) over 60 minutes. Buffer flow rate was 1 mL/min.

[2] = system: PHA stimulated human PBL; experiment: Progression of PHA stimulated PBL into the S-phase of the cell cycle (flow cytometry); format: cell-based; conditions: PHA stimulation 48 hours, versus nontreated control
Experimental: Human PBL's were stimulated with PHA for 48 hours in the presence or absence of the antisense oligonucleotide sequences of Table 6. The percent of the population of cells in each treatment group in the S-phase of the cell cycle as compared to the nontreated control was determined using standard flow cytometric techniques.

[3] = system: c-myc protein in MOLT-4 human T-cell leukemia cells; experiment: C-MYC protein expression in MOLT-4 cells (35S-methionine, radioimmunoprecipitation); format: cell-based; conditions: 60 μM, 8 hours incubation
Experimental: Asynchronous exponentially growing Molt-4 cells were incubated for 8 hours in the presence or absence of 60 μM c-myc directed antisense DNA. The cells were then incubated for 45 minutes in the presence of ^35 S-methionine and the content of c-myc protein guantitated using radioimmunoprecipitation with a c-myc antibody.

Substance | % DEGRADATION MAJOR PEAK [1] [%] | degradation / resistance to hydrolysis by FCS-associated exonucleases (in words) [1] | AREA-MAJOR PEAK/2.0 HR [1] | AREA-MAJOR PEAK/0.0 MIN [1] | % of oligomer remained after incubation [1] [%] | % CONTROL S-PHASE ([2]; 30 μM) [%] | % CONTROL S-PHASE ([2]; 60 μM) [%] | % REDUCTION C-MYC PROTEIN [3] [%]
5' X GGA GCT GGT GGC GTA X (A) 3' (antisense GGAGCTGGTGGCGTA; triethylene glycol unit at both ends, extra 3' A, further chemistry not given here) [Ref. Code 7, TEG-terminated anti-RAS oncogene DNA, X is TEG] | 0.0 | no degradation; also recorded: completely resistant to hydrolysis | 0.3663 | 0.2325 | – | – | – | –
5' CCT CGA CCA CCG CAT 3' (DNA CCTCGACCACCGCAT; DNA, backbone and methylation of C not given here) [Ref. Code 11, unmodified oligodeoxynucleotide made by standard solid phase phosphoramidite procedures, comparison, reference compound] | 75.3 | – | 0.3177 | 1.2861 | 24.7 | – | – | –
5' XX GGA GCT GGT GGC GTA XX (A) 3' (antisense GGAGCTGGTGGCGTA; two triethylene glycol units at each end, extra 3' A, further chemistry not given here) [Ref. Code 8, TEG-terminated anti-RAS oncogene DNA, X is TEG] | 17.9 | – | 0.1777 | 0.2164 | 82.1 | – | – | –
5' XX CCT CGA CCA CCG CAT XX (A) 3' (antisense CCTCGACCACCGCAT; two TEG at each end, 3' A, chemistry not fully specified) [Ref. Code 10, TEG-terminated anti-RAS oncogene DNA, X is TEG] | 0.0 | no degradation; also recorded: completely resistant to hydrolysis | 0.3697 | 0.3642 | – | – | – | –
5' AAC GTT GAG GGG CAT 3' [reference compound] | – | – | – | – | – | 75 ± 6 | 9 ± 10 | 61.0 ± 2.6
5' X CCT CGA CCA CCG CAT X (A) 3' (antisense CCTCGACCACCGCAT; triethylene glycol unit at both ends, extra 3' A, further chemistry not given here) [Ref. Code 9, TEG-terminated anti-RAS oncogene DNA, X is TEG] | 13.0 | – | 0.3258 | 0.3744 | 87.0 | – | – | –
